{
  "source": "patent US7709458B2",
  "about": "“Method for inhibiting cancer cell proliferation or increasing cancer cell apoptosis” (priority 2004, dated 2010)",
  "key": {"[1]": {"test_system": "NRK 52E cells (normal rat kidney cells)", "experiment": "Cell proliferation assay on normal rat kidney cells (Alamar blue, 24-96 h)", "format": "cell-based", "description": "(§1) Cell proliferation assay on normal rat kidney cells. To assess potential effects on cell proliferation, the Alamar blue assay was performed using NRK 52E cells. Cells were harvested as described for the toxicity assay and seeded in 96-well tissue culture plates at a density of about 3×10^3 cells/well and evaluated over a 96-h time frame. Cells were allowed to attach for 3 h in the basal, serum-containing DMEM medium. After attachment, the media was aspirated and replaced with test solutions according to the design described for the toxicity assay with the addition of the Alamar blue dye to each solution (as 10% vol/vol). The reduction of Alamar blue dye was measured in a fluorimetric plate reader (Cytofluor) at 24, 48, 72 and 96 h. Morphological observation was also performed to ensure that the cell patterns matched the fluorescence data. Data were collected as raw fluorescence units and expressed as a percentage of the solvent control using the average values from all 8 wells used for each group (mean fluorescence test/mean fluorescence control×100=% control fluorescence) at each time period. As a further check to ensure that Alamar blue was not itself exerting some growth or inhibitory effects the experiments were also performed by plating cells at the lower density with exposures for 72 h without Alamar blue in the media. After the 72-h growth period, the media was aspirated and fresh DMEM containing Alamar blue (10% vol/vol) was added to all wells. Cells were further incubated in the Alamar blue solution for 6 h and fluorescence measured and data collected and expressed as described."}, "[2]": {"test_system": "H508 human colon cancer cells", "experiment": "H508 colon cancer cell proliferation assay (sulforhodamine B colorimetric assay)", "format": "cell-based", "conditions": "for effect on EGF-induced H508 cell proliferation: EGF 1 ng/ml; for effect on acetylcholine-induced H508 cell proliferation: acetylcholine 300 μM", "description": "H508 colon cancer cell culture. H508 human colon cancer cells were grown in RPMI 1640 (ATCC) supplemented with 10% fetal bovine serum (FBS) (Biowhittaker). Adherent cultures were passaged weekly at subconfluence after trypsinization. Cultures were maintained in incubators at 37° C. in an atmosphere of 5% CO2 and 95% air.\nH508 colon cancer cell proliferation assay. Cell proliferation was determined using the sulforhodamine B (SRB) colorimetric assay (Skehan et al., 1990). Cells were seeded in 96-well plates (Corning Glass Works, Corning, N.Y.) at approx. 10% confluence and allowed to attach for 24 h. Growth medium was removed and fresh medium without FBS and containing the indicated concentration of test agent was added. Cells were incubated for the indicated periods of time at 37° C. in an atmosphere of 5% CO2 and 95% air. After incubation, cells were treated for 30 min with 0.4% (w/v) SRB dissolved in 1% acetic acid. Protein-bound dye was extracted with unbuffered 10 mM Tris base. Absorbance was measured at 560 nm using a computer-interfaced, 96-well microtiter plate reader.\nc-di-GMP inhibits proliferation of human colon cancer cells. The potential therapeutic actions of c-di-GMP were examined on basal and growth factor-stimulated proliferation of cells derived from a moderately differentiated human cecal adenocarcinoma (H508 cells) that express M3 muscarinic (M3R) and epidermal growth factor (EGF) receptors (EGFR) (Cheng et al., 2003). Cell proliferation was determined using the validated sulforhodamine B (SRB) calorimetric assay (Skehan et al., 1990). H508 cells were incubated in the absence or presence of a growth stimulant, acetylcholine (300 μM) and EGF (1 ng/ml) alone or with increasing concentrations of c-di-GMP (0.5-50 μM). After a 5-day incubation, the highest concentration of c-di-GMP tested, 50 μM, reduced basal H508 cell proliferation by approx. 15% (FIG. 1; p<0.05 compared to control, Student's unpaired t-test)."}, "[3]": {"test_system": "p44/42 (ERK1/2) mitogen-activated protein kinase (MAPK) cascade", "experiment": "Acetylcholine- and EGF-induced activation of p44/42 MAPK signaling in H508 cells", "format": "cell-based, human"}, "[4]": {"test_system": "H508 human colon cancer cells", "experiment": "H508 colon cancer cell proliferation assay (sulforhodamine B colorimetric assay)", "format": "cell-based", "conditions": "50 μM"}, "[5]": {"experiment": "Solubility and stability of c-di-GMP", "format": "physicochemical"}, "[6]": {"test_system": "NRK 52E cells (normal rat kidney cells)", "experiment": "Cytotoxicity on normal rat kidney cells using the Alamar blue assay", "format": "cell-based", "conditions": "for decrease in fluorescence: 200 μM", "description": "Toxicity assays in normal rat kidney cells (NRK). The toxicity of c-di-GMP in independent cell lines was tested. In these studies, acute (24 and 72 h) toxicity in NRK 52 E cells (normal rat kidney cells) was determined using the Alamar blue assay. NRK 52E cells are a rat renal tubule epithelial cell line originally cloned from a mixed culture termed NRK. The Alamar blue assay is designed to measure the proliferation of cell lines and is used routinely to determine the cytotoxicity of various chemicals. […] It is minimally toxic to most living cells.\nChemical toxicity on normal rat kidney cells. To assess chemical toxicity, the Alamar blue assay was performed using NRK 52E cells plated at near confluence in 96-well tissue culture plates (Costar). Cells were maintained in DMEM containing 10% FBS and penicillin/streptomycin in tissue culture flasks. Cells were harvested by trypsinization, resuspended in the basal medium and counted. NRK 52E cells were plated at a density of 4-5×10^4 cells/well. After a 24-h attachment/acclimation interval, the tissue culture media was aspirated and replaced with the appropriate test solution. For most experiments, 8 wells were used for each solution, i.e., each solution was tested in one column of 8 replicate wells. […] Plates were incubated for 24 or 72 h and observed under phase contrast microscopy. All solutions were aspirated and replaced with fresh DMEM containing Alamar blue dye (10% vol/vol). Plates were incubated at 37° C. for an additional 6 h after which fluorescence was measured using a fluorimetric plate reader (Cytofluor). Data were collected as raw fluorescence units and expressed as a percentage of the solvent control using average values from all 8 wells for each group (mean fluorescence test/mean fluorescence control×100=% control fluorescence).\nas §1"}, "[7]": {"conditions": "increasing concentrations 0.5-50 μM, 5 days"}},
  "note": "Entries after “also recorded” stand apart in the source; their conditions may differ. Read-outs that look alike come from different tables or passages of the source.",
  "data": [
    {"compound": "Nc1nc(=O)c2ncn([C@@H]3OC4COP(=O)(O)O[C@H]5[C@@H](O)[C@H](n6cnc7c(=O)nc(N)[nH]c76)O[C@@H]5COP(=O)(O)OC4C3O)c2[nH]1", "note": "(stereo partly shown) [c-di-GMP, Bis(3′-->5′)-cyclic diguanylic acid]", "values": [
      {"measurement": "fluorescence (% of control), NRK cell proliferation", "setting": "[1]; 100 μM, 48 h", "value": "75 % of control fluorescence"},
      {"measurement": "fluorescence (% of control), NRK cell proliferation", "setting": "[1]; 100 μM, 72 h", "value": "87 % of control fluorescence"},
      {"measurement": "fluorescence (% of control), NRK cell proliferation", "setting": "[1]; 100 μM, 96 h", "value": 94, "unit": "% control fluorescence"},
      {"measurement": "fluorescence (% of control), NRK cell proliferation", "setting": "[1]; 200 μM, 96 h", "value": "85 % of control"},
      {"measurement": "NRK cell proliferation", "setting": "[1]; 200 μM, up to 96 h", "value": "retardation of cell proliferation that was much less pronounced than the 400-μM dose"},
      {"measurement": "NRK cell proliferation", "setting": "[1]; 400 μM, 96-h period of exposure", "value": "little growth over the 96-h period of exposure"},
      {"measurement": "NRK cell proliferation", "setting": "[1]; 5, 25 or 50 μM (data not shown)", "value": "not altered"},
      {"measurement": "effect on basal H508 cell proliferation", "setting": "[2]; 50 μM, 5 days incubation", "value": "inhibited"},
      {"measurement": "effect on EGF-induced H508 cell proliferation", "setting": "[2]; 50 μM, 5 days", "value": "reduced to basal levels"},
      {"measurement": "effect on acetylcholine-induced H508 cell proliferation", "setting": "[2]; 50 μM, 5 days", "value": "reduced to basal levels"},
      {"measurement": "reduction of basal H508 cell proliferation", "setting": "[2]; 50 μM, basal (no stimulant), 5-day incubation", "value": "approx. 15%"},
      {"measurement": "effect on EGF-induced H508 cell proliferation", "setting": "[2]; [7]", "value": "inhibit; also recorded: progressively inhibited"},
      {"measurement": "effect on acetylcholine-induced H508 cell proliferation", "setting": "[2]; [7]", "value": "inhibit; also recorded: progressively inhibited"},
      {"measurement": "effect on basal H508 cell proliferation", "setting": "[2]; increasing concentrations, 5 days (FIG. 1)", "value": "inhibit"},
      {"measurement": "effect on basal H508 cell proliferation", "setting": "[2]; lower concentrations (below 50 μM), 5 days", "value": "did not significantly alter basal proliferation; also recorded: did not alter basal cell proliferation"},
      {"measurement": "effect on EGF-induced activation (phosphorylation) of p44/42 MAPK", "setting": "[3]", "value": "did not alter"},
      {"measurement": "effect on acetylcholine-induced activation (phosphorylation) of p44/42 MAPK", "setting": "[3]", "value": "did not alter"},
      {"measurement": "effect on EGF-induced activation (phosphorylation) of p44/42 MAPK", "setting": "[3]; listed as cyclic-di-GMP", "value": "do not inhibit"},
      {"measurement": "effect on acetylcholine-induced activation (phosphorylation) of p44/42 MAPK", "setting": "[3]; listed as cyclic-di-GMP", "value": "do not inhibit"},
      {"measurement": "apoptosis of H508 cells by microscopic examination", "setting": "[4]", "value": "not observed by microscopic examination"},
      {"measurement": "stability", "setting": "[5]; physiological conditions", "value": "stable"},
      {"measurement": "solubility", "setting": "[5]; water physiological saline", "value": "soluble"},
      {"measurement": "decrease in fluorescence", "setting": "[6]; 72 h confluent cells", "value": 36, "unit": "%"},
      {"measurement": "decrease in fluorescence", "setting": "[6]; 72 h non-confluent cells", "value": 14, "unit": "%"},
      {"measurement": "toxicity on normal rat kidney cells", "setting": "[6]; 400 μM, 24 h", "value": "nontoxic"},
      {"measurement": "fluorescence relative to the solvent control", "setting": "[6]; 20, 40, 100 μM", "value": "no decease in fluorescence relative to the solvent control"},
      {"measurement": "toxicity on NRK cells", "setting": "[6]; 200 and 400 μM, 72 h exposure", "value": "toxicity was observed"},
      {"measurement": "cytotoxicity on NRK cells", "setting": "[6]; 24 h exposure", "value": "little evidence of cytotoxicity"},
      {"measurement": "cytotoxicity on normal rat kidney cells", "setting": "[6]; all relevant biological concentrations / biologically relevant doses", "value": "no cytotoxicity"},
      {"measurement": "Fluorescence (% control)", "setting": "[6]; c-di-GMP 20 μM, 24-h confluent", "value": 98.5, "unit": "% control"},
      {"measurement": "Fluorescence (% control)", "setting": "[6]; c-di-GMP 20 μM, 72-h confluent", "value": 98.0, "unit": "% control"},
      {"measurement": "Fluorescence (% control)", "setting": "[6]; c-di-GMP 20 μM, 72-h non-confluent", "value": 97.0, "unit": "% control"},
      {"measurement": "Fluorescence (% control)", "setting": "[6]; c-di-GMP 40 μM, 24-h confluent", "value": 99.4, "unit": "% control"},
      {"measurement": "Fluorescence (% control)", "setting": "[6]; c-di-GMP 40 μM, 72-h confluent", "value": 98.0, "unit": "% control"},
      {"measurement": "Fluorescence (% control)", "setting": "[6]; c-di-GMP 40 μM, 72-h non-confluent", "value": 99.0, "unit": "% control"},
      {"measurement": "Fluorescence (% control)", "setting": "[6]; c-di-GMP 100 μM, 24-h confluent", "value": 99.7, "unit": "% control"},
      {"measurement": "Fluorescence (% control)", "setting": "[6]; c-di-GMP 100 μM, 72-h confluent", "value": 92.2, "unit": "% control"},
      {"measurement": "Fluorescence (% control)", "setting": "[6]; c-di-GMP 200 μM, 24-h confluent", "value": 101.6, "unit": "% control"},
      {"measurement": "Fluorescence (% control)", "setting": "[6]; c-di-GMP 200 μM, 72-h confluent", "value": 64.2, "unit": "% control"},
      {"measurement": "Fluorescence (% control)", "setting": "[6]; c-di-GMP 200 μM, 72-h non-confluent", "value": 86.0, "unit": "% control"},
      {"measurement": "Fluorescence (% control)", "setting": "[6]; c-di-GMP 400 μM, 24-h confluent", "value": 96.2, "unit": "% control"},
      {"measurement": "Fluorescence (% control)", "setting": "[6]; c-di-GMP 400 μM, 72-h confluent", "value": 40.0, "unit": "% control"},
      {"measurement": "Fluorescence (% control)", "setting": "[6]; c-di-GMP 400 μM, 72-h non-confluent", "value": 3.0, "unit": "% control"}
    ]}
  ]
}
